Data published in patent publication US20230312577A1, “DUAL KINASE-BROMODOMAIN INHIBITORS” (MONASH UNIVERSITY, priority 2020, published 2023).

Key:
BRD4 = BRD4 (Homo sapiens, UniProt O60885); assay: Chromatin immunoprecipitation and sequencing analysis in OPM2 cells; format: cell-based; parameters: endogenous in cells; host or cells: OPM2; settings: 250 nM, 2 h
Method: OPM2 cells (4×10^6) were treated with 250 nM of Cpd 010 or DMSO control for 2 h. Cells were cross-linked, and nuclei were lysed to achieve a mean DNA fragment size of 300-500 bp. Immunoprecipitation was performed using protein A/G magnetic beads for at least 12 h at 4° C. using the following antibodies: anti-BRD4 anti-H3K27Ac, anti-RNA polymerase II. Reverse crosslinking of DNA was performed, and DNA was purified using QIAquick PCR purification kit. The KAPA Hyper Prep Kit was used to generate libraries as per the manufacturer's instruction, which sequenced on the NextSeq (Illumina; 75 bp SE).

[1] = In vivo assessment of maximum tolerated dose (MTD)
From the text: The Peter MacCallum Cancer Centre Animal Ethics Committee approved all in vivo procedures in this study. B6.SJL-PtprcPepc/BoyJ (B6.CD45.1) mice were purchased from the Walter and Eliza Hall Institute (Melbourne, VIC). For enhanced solubility, Cpd 010 was reconstituted in double dose with 60% Hydroxypropyl-B-cyclodextrin (HPBCD; Cyclodextrin Technologies Development Inc.) and subsequently diluted with ultrafiltered water in 1:1 ratio prior to injection. Vehicle control was 60% HPBCD subsequently diluted 1:1 ratio with ultrafiltered water prior to injection for the final concentration of 30% HPBCD. MTD was carried out in 6-8 week old, non-tumour bearing female mice starting from 25 mg/kg of Cpd 010, 5 day intraperitoneal injection. Six mice received Cpd 010 and two mice received vehicle (30% HPBCD). Full Blood Examination (FBE), serum, spleen weight and morphological examination for toxicity were assessed on day 8 and day 15. In the absence of toxicity further dose escalation was carried out.

Eμ-Myc lymphoma cells = assay: In vivo therapeutic assessment, Eμ-Myc lymphoma transplant; parameters: species or system mouse; settings: 45 mg/kg IP, 5 days per week, 3 weeks
Method: For transplantation of Eμ-Myc lymphomas in vivo, cohorts of 6-8 week old B6.SJL-PtprcPepc/BoyJ (B6.CD45.1) mice were inoculated via tail vein injection with 5×10^5 Eμ-Myc lymphoma cells (C57BL/6 (CD45.2)). Cpd 010 and vehicle controls (30% HPBCD) were prepared as above. Three days after lymphoma inoculation, intraperitoneal (IP) injection of compound 10 (45 mg/kg), or vehicle (30% HPBCD) was administered 5 days per week, for a total of 3-weeks of therapy. Detection of tumour cells on peripheral blood was carried out by flow cytometric analysis using the following antibodies; fixable Viability dye-AmCyan (Zom-bie Aqua™ Fixable Viability Kit, BioLegend), anti-mouse CD19-PE (ThermoFisher Scientific, #12-0193-82), anti-mouse CD45R (B220)-APC (ThermoFisher Scientific, #RA3-6B2), anti-mouse CD45.1-PerCP-Cy™5.5 (ThermoFisher Scientific, #A20), anti-mouse CD45.2-FITC (BioLegend, #104). Data were collected on a BD LSR-Fortessa X20 (BD Biosciences). The data were analysed using FlowJo Software, version 10.0.7 (Tree Star).

BRD2 = target: T1, BRD2 (Homo sapiens, UniProt P25440); assay: Cellular thermal shift assay (CETSA) in Ramos cells; format: cell-based; settings: 20 μM, 40 min, vs DMSO
T1 construct: endogenous in cells; host or cells: Ramos
T1 sequence (P25440 whole entry): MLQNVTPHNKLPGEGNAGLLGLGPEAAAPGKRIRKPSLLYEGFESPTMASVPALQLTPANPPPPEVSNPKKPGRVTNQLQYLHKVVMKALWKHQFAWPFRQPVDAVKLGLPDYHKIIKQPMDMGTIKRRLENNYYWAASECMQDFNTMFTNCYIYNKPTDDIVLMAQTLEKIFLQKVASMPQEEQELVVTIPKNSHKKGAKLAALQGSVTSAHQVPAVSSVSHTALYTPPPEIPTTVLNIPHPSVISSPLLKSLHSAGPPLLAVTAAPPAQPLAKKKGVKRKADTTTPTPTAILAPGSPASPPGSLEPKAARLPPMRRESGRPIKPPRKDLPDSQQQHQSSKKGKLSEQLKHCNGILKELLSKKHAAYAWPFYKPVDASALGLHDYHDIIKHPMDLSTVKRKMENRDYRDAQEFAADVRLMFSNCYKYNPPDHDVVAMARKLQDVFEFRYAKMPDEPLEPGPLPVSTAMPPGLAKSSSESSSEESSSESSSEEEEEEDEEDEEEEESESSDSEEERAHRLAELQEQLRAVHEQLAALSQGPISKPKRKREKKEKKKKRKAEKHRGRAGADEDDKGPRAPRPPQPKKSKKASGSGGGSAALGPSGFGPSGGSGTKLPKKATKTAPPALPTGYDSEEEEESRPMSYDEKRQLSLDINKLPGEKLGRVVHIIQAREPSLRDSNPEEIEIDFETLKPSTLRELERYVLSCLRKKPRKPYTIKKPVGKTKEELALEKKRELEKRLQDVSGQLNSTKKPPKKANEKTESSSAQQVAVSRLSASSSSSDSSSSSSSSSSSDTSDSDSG
Method: Ramos cells (human Burkitt lymphoma cell line) at 20×10^6 were washed in PBS followed by resuspension in 5 mL serum-free RPMI. They were treated either with Cpd 010 or DMSO at 20 μM for 40 min at 37° C. with 5% CO2. Cells were then collected, resuspended in PBS and separated into PCR tubes. They were heated at designated temperature for strictly 3 min followed by another 3 min at 25° C. on ABI Applied Biosystems 9902 Veriti PCR Thermal Cycler. Immediately, they were placed in liquid nitrogen for snap freezing. The samples were freeze-thawed until the final samples were place on ice. They were centrifuged and supernatants were collected. Loading dye was mixed and these were processed as per our Western Blot protocol (see above). The following primary antibodies were used; rabbit BRD4 (Cell Signaling, #13440), rabbit BRD2 (Cell Signaling, #5848), and mouse anti-β-actin (Sigma-Aldrich, clone AC-74).

OPM2 cells = assay: Cell proliferation assay (ViaLight, cellular ATP); format: cell-based; settings: Homo sapiens, OPM-2, 120 h, 5 days, 5 μM to 1 nM
Procedure, shortened: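 1×10^3 cells per well exposed to compounds at final 5 μM to 1 nM for 5 days. Viability read as cellular ATP by ViaLight luminescence, technical triplicates. GI50 computed from the dose–response.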

[2] = tested on: pAKT (PI3K substrate) and MYC (BET target protein); assay: Western Blot analysis in OPM2 cells; format: cell-based, human; settings: 4 hours
Method: OPM2 cells (1.2×10^6) were treated with Cpd 010 or DMSO control at indicated concentrations for 4 hours. Lysates were prepared in ice-cold RIPA lysis buffer (Thermofisher, Life Technologies) and supplemented with Halt protease phosphatase inhibitor cocktail (Thermofisher, Pierce Biotechnology). Protein concentrations of lysate samples were determined by bicinchoninic acid assay (BCA assay) using the Thermo Scientific Pierce BCA Protein Assay Kit (ThermoFisher, Life Technologies) as per manufacturer's instructions. Absorbance for protein concentration estimation was measured using a BMG OPTIMA (Fluostar optima, BMG Labtech). Lysates (25-50 μg) were separated on pre-cast gels (Bis-Tris 4-12% gradient gels) (Bolt, Life Technologies) and transferred onto polyvinylidene difluoride (PVDF) membranes (Immobilon-FL, Merck). The membranes were sequentially incubated with primary antibodies o.n. at 4° C.; mouse anti-β-actin (Sigma-Aldrich, clone AC-74), rabbit anti-cMyc (Cell Signaling, #9402S), rabbit anti-pAKT Ser473 (Cell Signaling, #9271), rabbit anti-pS6 Ser240/244 (Cell Signaling, #2215). Subsequently they were incubated with horse radish pe-roxidase (HRP)-conjugated secondary antibodies for 1-2 h at r.t before the detection of proteins by enzymatic (chemiluminescent) reaction using a ChemiDoc^Tm XRS+ System (Bio-Rad La-boratories Inc.). […]

## CC(=O)N1c2ccc(-c3ccc(CNC(=O)c4cn5cc(-c6cnc(N)nc6)nc(N6CCOCC6)c5n4)cc3)cc2CC[C@@H]1C [Cpd 010, (S)-N-(4-(1-acetyl-2-methyl-1,2,3,4-tetrahydroquinolin-6-yl)benzyl)-6-(2-aminopyrimidin-5-yl)-8-morpholinoimidazo[1,2-a]pyrazine-2-carboxamide]
BRD4
  BRD4 and RNA Pol II at MYC locus: significant reduction in BRD4 and RNA Pol II
  displacement of BRD4 from chromatin: robust displace ment of BRD4
[1]; 50 mg/kg
  spleen and body weight: no changes in spleen and body weight
[1]; 50 mg/kg, day 8
  FBE at day 8: moderate thrombocytopenia
[1]; 50 mg/kg, day 15
  FBE on day 15: recovered to the normal level
[1]; B6.SJL-Ptprc<a>Pepc<b>/BoyJ (B6.CD45.1), mouse, in vivo, ip, non-tumour bearing female mice, 5 day intraperitoneal injection
  MTD at 5 day: 50 mg/kg
Eμ-Myc lymphoma cells
  curative response: 90%
Eμ-Myc lymphoma cells; p<0.0001
  survival: statistically significant survival benefit
BRD2
  clearance of BRD2 protein with increasing temperature: delayed clearance
OPM2 cells
  GI50: ≤ 100 nM
[2]
  levels of pAKT and MYC: suppressed levels of both pAKT (PI3K substrate) and MYC (BET target protein) at all test concentrations
